From patent US20240059691A1 (KALVISTA PHARMACEUTICALS LIMITED, priority 2020, published 2024)

Columns and labels:
[1] = target: Human Factor XIIa (Homo sapiens (Human), UniProt P00748); test: Determination of FXIIa inhibition (fluorogenic substrate H-DPro-Phe-Arg-AFC, IC50 assay); assay type: biochemical; conditions: substrate H-DPro-Phe-Arg-AFC at Km, 25° C.; class scale A-G
Outline: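 Human FXIIa incubated at 25° C with fluorogenic substrate H-DPro-Phe-Arg-AFC at its Km concentration and varying compound concentrations. Fluorescence release monitored over 5 min at 25° C; linear rate expressed as % of uninhibited activity to derive IC50.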

[2] = target: Plasma Kallikrein (Homo sapiens (Human), UniProt P03952); test: Determination of related protease inhibition: Plasma Kallikrein (fluorogenic substrate at Km); assay type: biochemical; conditions: 25° C., read-out: IC50 (human PKal)
Outline: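 Human enzyme incubated with test compound over a concentration range and a fluorogenic substrate at its Km concentration. Liberated fluorescence monitored over 5 min at 25 °C; linear rate per minute expressed as % of uninhibited activity, and IC50 taken as the concentration giving 50% inhibition.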

Chain of Human Factor XIIa (P00748 373-615): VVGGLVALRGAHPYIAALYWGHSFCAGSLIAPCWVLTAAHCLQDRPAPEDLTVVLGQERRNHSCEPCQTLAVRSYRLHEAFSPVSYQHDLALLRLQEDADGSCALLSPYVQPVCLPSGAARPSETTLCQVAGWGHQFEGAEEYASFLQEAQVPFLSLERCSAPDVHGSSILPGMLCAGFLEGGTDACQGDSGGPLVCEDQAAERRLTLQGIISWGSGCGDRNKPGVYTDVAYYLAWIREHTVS
Chain of Plasma Kallikrein (P03952 391-638): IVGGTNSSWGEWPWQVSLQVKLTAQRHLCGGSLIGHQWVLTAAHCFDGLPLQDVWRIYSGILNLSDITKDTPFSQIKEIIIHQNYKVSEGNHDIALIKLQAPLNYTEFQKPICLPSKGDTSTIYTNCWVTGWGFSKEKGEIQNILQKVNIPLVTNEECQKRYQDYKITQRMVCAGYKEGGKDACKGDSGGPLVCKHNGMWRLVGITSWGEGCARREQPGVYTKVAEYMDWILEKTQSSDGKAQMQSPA
Chain of Plasma Kallikrein (P03952 20-390 partner): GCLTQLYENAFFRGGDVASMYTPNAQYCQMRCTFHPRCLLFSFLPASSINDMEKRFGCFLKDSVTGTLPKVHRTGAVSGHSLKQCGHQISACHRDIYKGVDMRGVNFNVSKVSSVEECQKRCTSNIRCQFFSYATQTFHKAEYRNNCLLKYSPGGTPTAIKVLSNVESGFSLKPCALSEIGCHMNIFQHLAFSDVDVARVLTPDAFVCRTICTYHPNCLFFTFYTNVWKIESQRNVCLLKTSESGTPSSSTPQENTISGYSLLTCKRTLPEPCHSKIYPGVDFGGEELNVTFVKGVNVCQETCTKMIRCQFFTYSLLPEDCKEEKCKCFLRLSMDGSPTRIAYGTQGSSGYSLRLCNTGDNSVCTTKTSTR

Compound	IC50 [1] [µM]	IC50 [2] [µM]
Nc1nccc2c(NCc3ccc(N4CCn5ncc(O)c5C4)nc3)cccc12 [Example 1312, 5-(5-(((1-aminoisoquinolin-5-yl)amino)methyl)pyridin-2-yl)-4,5,6,7-tetrahydropyrazolo[1,5-a]pyrazin-3-ol]	3 to 10	> 40
CN1CCC(OCc2ccc(CNc3ccc4nc(N)ccc4c3)cc2)CC1 [Example 2187, N6-(4-(((1-methylpiperidin-4-yl)oxy)methyl)benzyl)quinoline-2,6-diamine]	3 to 10	10 to 40
CN1CCC(OCc2ccc(CNc3ccc4cc(N)ncc4c3)cc2)CC1 [Example 2188, 7-N-[(4-{[(1-methylpiperidin-4-yl)oxy]methyl}phenyl)methyl]isoquinoline-3,7-diamine]	10 to 40	10 to 40
CN1CCC(OCc2ccc(CNc3ccc4cnc(N)cc4c3)cc2)CC1 [Example 2189, N6-(4-(((1-methylpiperidin-4-yl)oxy)methyl)benzyl)isoquinoline-3,6-diamine]	10 to 40	10 to 40
CN1CCC(OCc2ccc(CN(C)c3ccc4c(N)nccc4c3)cc2)CC1 [Example 2190, N6-methyl-N6-(4-(((1-methylpiperidin-4-yl)oxy)methyl)benzyl)isoquinoline-1,6-diamine]	1 to 3	3 to 10
CC(C)N1CCC(OCc2ccc(CNc3ccc4c(N)nccc4c3)c(F)c2)CC1 [Example 2216, 6-N-[(2-fluoro-4-{[(1-isopropylpiperidin-4-yl)oxy]methyl}phenyl)methyl]isoquinoline-1,6-diamine]	0.1 to 0.3	1 to 3
Nc1nccc2c(NCc3ccc(N4CC5(CC(O)c6nccn65)C4)cc3)cccc12 (centres unmarked) [Example 2253, 1-(4-(((1-aminoisoquinolin-5-yl)amino)methyl)phenyl)-6′,7′-dihydrospiro[azetidine-3,5′-pyrrolo[1,2-a]imidazol]-7′-ol]	3 to 10	> 40
CN1CCC(COc2cc(CNc3cnc4c(N)nccc4c3)ccn2)CC1 [Example 4293, 3-N-({2-[(1-methylpiperidin-4-yl)methoxy]pyridin-4-yl}methyl)-1,7-naphthyridine-3,8-diamine]	0.3 to 1	> 40
CC(C)N1CC2CCC(C1)C2COc1cc(CNc2cccc3c(N)nccc23)ccn1 (centres unmarked) [Example 4297, N5-((2-((3-isopropyl-3-azabicyclo[3.2.1]octan-8-yl)methoxy)pyridin-4-yl)methyl)isoquinoline-1,5-diamine]	0.1 to 0.3	> 4
Nc1ncc(Cl)c2cc(NCc3ccnc(OCC4CCn5ccnc5C4)c3)ccc12 (centres unmarked) [Example 4300, 4-Chloro-N6-[[2-(5,6,7,8-tetrahydroimidazo[1,2-a]pyridin-7-ylmethoxy)-4-pyridyl]methyl]isoquinoline-1,6-diamine]	0.1 to 0.3	10 to 40
Nc1nccc2c(NCc3ccnc(NCCC(=O)N4CCCC4)c3)cccc12 [Example 4302, 3-[(4-{[(1-aminoisoquinolin-5-yl)amino]methyl}pyridin-2-yl)amino]-1-(pyrrolidin-1-yl)propan-1-one]	1 to 3	10 to 40
Nc1ncc(Cl)c2cc(NCc3ccnc(NCC4CCn5ccnc5C4)c3)ccc12 (centres unmarked) [Example 4303, 4-chloro-6-N-{[2-({5H,6H,7H,8H-imidazo[1,2-a]pyridin-7-ylmethyl}amino)pyridin-4-yl]methyl}isoquinoline-1,6-diamine]	0.1 to 0.3	> 40
Nc1nccc2c(NCc3ccnc(OC4CCn5ccnc5C4)c3)cccc12 (centres unmarked) [Example 4306, 5-N-[(2-{5H,6H,7H,8H-imidazo[1,2-a]pyridin-7-yloxy}pyridin-4-yl)methyl]isoquinoline-1,5-diamine]	1 to 3	10 to 40
Nc1ncc(F)c2cc(NCc3ccnc(OCC4CCn5ccnc5C4)c3)ccc12 (centres unmarked) [Example 4307, 4-fluoro-6-N-[(2-{5H,6H,7H,8H-imidazo[1,2-a]pyridin-7-ylmethoxy}pyridin-4-yl)methyl]isoquinoline-1,6-diamine]	0.3 to 1	> 4
Cc1cn2c(n1)CC(COc1cc(CNc3ccc4c(N)ncc(Cl)c4c3)ccn1)CC2 (centres unmarked) [Example 4309, 4-chloro-6-N-{[2-({2-methyl-5H,6H,7H,8H-imidazo[1,2-a]pyridin-7-yl}methoxy)pyridin-4-yl]methyl}isoquinoline-1,6-diamine]	0.1 to 0.3	> 4
Cc1cnc2n1CCC(COc1cc(CNc3cccc4c(N)nccc34)ccn1)C2 (centres unmarked) [Example 4320, N5-[[2-[(3-methyl-5,6,7,8-tetrahydroimidazo[1,2-a]pyridin-7-yl)methoxy]-4-pyridyl]methyl]isoquinoline-1,5-diamine]	0.1 to 0.3	3 to 10
CN1CCN(c2cc(CNc3cccc4c(N)nccc34)ccn2)CC1 [Example 4426, 5-N-{[2-(4-methylpiperazin-1-yl)pyridin-4-yl]methyl}isoquinoline-1,5-diamine]	10 to 40	> 40

Compound	IC50 [1] [µM]	IC50 [2] [µM]
CN1CCN(c2cc(CNc3ccc4c(N)ncc(Cl)c4c3)ccn2)CC1 [Example 4427, 4-chloro-6-N-{[2-(4-methylpiperazin-1-yl)pyridin-4-yl]methyl}isoquinoline-1,6-diamine]	10 to 40	> 40
Nc1ncc(Cl)c2cc(NCc3ccnc(NCCC(=O)N4CCCC4)c3)ccc12 [Example 4428, 3-[(4-{[(1-amino-4-chloroisoquinolin-6-yl)amino]methyl}pyridin-2-yl)amino]-1-(pyrrolidin-1-yl)propan-1-one]	1 to 3	> 4
Nc1nccc2cc(NCc3ccnc(OCC4CCn5ccnc5C4)c3)ncc12 (centres unmarked) [Example 4429, N6-[[2-(5,6,7,8-tetrahydroimidazo[1,2-a]pyridin-7-ylmethoxy)-4-pyridyl]methyl]-2,7-naphthyridine-1,6-diamine]	1 to 3	3 to 10
Nc1ncc(Cl)c2cc(NCc3ccnc(OC4CCn5ccnc5C4)c3)ccc12 (centres unmarked) [Example 4432, 4-chloro-6-N-[(2-{5H,6H,7H,8H-imidazo[1,2-a]pyridin-7-yloxy}pyridin-4-yl)methyl]isoquinoline-1,6-diamine]	1 to 3	> 40
Nc1ncc(Cl)c2cc(NCc3ccnc(OCc4ccn5ccnc5c4)c3)ccc12 [Example 4433, 4-chloro-6-N-[(2-{imidazo[1,2-a]pyridin-7-ylmethoxy}pyridin-4-yl)methyl]isoquinoline-1,6-diamine]	1 to 3	> 40
Cc1n[nH]c2c1CCC2Nc1cc(CNc2ccc3c(N)ncc(Cl)c3c2)ccn1 (centres unmarked) [Example 4440, 4-chloro-N6-((2-((3-methyl-1,4,5,6-tetrahydrocyclopenta[c]pyrazol-6-yl)amino)pyridin-4-yl)methyl)isoquinoline-1,6-diamine]	10 to 40	> 40
Nc1ncc(Cl)c2cc(NCc3ccnc(OCC4CCCn5ccnc54)c3)ccc12 (centres unmarked) [Example 4443, 4-chloro-N6-((2-((5,6,7,8-tetrahydroimidazo[1,2-a]pyridin-8-yl)methoxy)pyridin-4-yl)methyl)isoquinoline-1,6-diamine]	0.1 to 0.3	> 40
Nc1ncc(Cl)c2cc(NCc3ccnc(OCC4CCn5c(CO)cnc5C4)c3)ccc12 (centres unmarked) [Example 4448, (7-(((4-(((1-amino-4-chloroisoquinolin-6-yl)amino)methyl)pyridin-2-yl)oxy)methyl)-5,6,7,8-tetrahydroimidazo[1,2-a]pyridin-3-yl)methanol]	0.3 to 1	> 40
Nc1ncc(Cl)c2cc(NCc3ccnc(OCC4CCn5cc(CO)nc5C4)c3)ccc12 (centres unmarked) [Example 4449, (7-(((4-(((1-amino-4-chloroisoquinolin-6-yl)amino)methyl)pyridin-2-yl)oxy)methyl)-5,6,7,8-tetrahydroimidazo[1,2-a]pyridin-2-yl)methanol]	0.3 to 1	> 40
Nc1nccc2c(CCc3ccnc(OCC4CCn5ccnc5C4)c3)cccc12 (centres unmarked) [Example 4452, 5-(2-(2-((5,6,7,8-tetrahydroimidazo[1,2-a]pyridin-7-yl)methoxy)pyridin-4-yl)ethyl)isoquinolin-1-amine]	0.3 to 1	> 40
CN1CCC(COc2cc(CNc3ccc4ncc(=O)[nH]c4c3)ccn2)CC1 [Example 4456]	40 to 100	10 to 40
CN1CCC(COc2cc(CNc3ccnc4[nH]ccc34)ccn2)CC1 [Example 4459, N-((2-((1-methylpiperidin-4-yl)methoxy)pyridin-4-yl)methyl)-1H-pyrrolo[2,3-b]pyridin-4-amine]	10 to 40	> 100
CN1CCC(COc2cc(CNc3cnc4[nH]cc(C#N)c4c3)ccn2)CC1 [Example 4460]	40 to 100	> 100
CN1CCC(COc2cc(CNc3cccc4c(N)ncc(F)c34)ccn2)CC1 [Example 4461, 4-fluoro-N5-((2-((1-methylpiperidin-4-yl)methoxy)pyridin-4-yl)methyl)isoquinoline-1,5-diamine]	3 to 10	> 40
COc1cc(NCc2ccnc(OCC3CCN(C)CC3)c2)cc2ccncc12 [Example 4462, 8-methoxy-N-((2-((1-methylpiperidin-4-yl)methoxy)pyridin-4-yl)methyl)isoquinolin-6-amine]	3 to 10	> 100
CNC(=O)c1cc(NCc2ccnc(OCC3CCN(C)CC3)c2)cc2ccncc12 [Example 4463]	40 to 100	> 100
Cc1cc2c(NCc3ccnc(OCC4CCN(C)CC4)c3)ccnc2[nH]1 [Example 4465, 2-methyl-N-((2-((1-methylpiperidin-4-yl)methoxy)pyridin-4-yl)methyl)-1H-pyrrolo[2,3-b]pyridin-4-amine]	1 to 3	> 100
